# Reference: patent publication US5760040A, “Indole derivative for treating overproduction of dihydrotestosterone” (Zeria Pharmaceutical Co., Ltd., priority 1994, dated 1998)
# “And” between values parts separate entries of the source, which are not always exact repeats. Equal entries are not always repeated. Where two headings read alike, the source gives them in different places.
# Assays:
# α1 -Adrenoceptor = biological target: T1, α1 -Adrenoceptor (Oryctolagus cuniculus, UniProt O02824); assay: α1-Adrenoceptor blocking action (antagonism of phenylephrine-induced contraction of isolated urethra and prostate strips); type: cell-based, rabbit (male albino)
# T1 construct: smooth muscle strips were prepared from prostate and proximal urethra; from tissue; host or cells: rabbit prostate and proximal urethra smooth muscle strips
# T1 sequence (O02824 1-466): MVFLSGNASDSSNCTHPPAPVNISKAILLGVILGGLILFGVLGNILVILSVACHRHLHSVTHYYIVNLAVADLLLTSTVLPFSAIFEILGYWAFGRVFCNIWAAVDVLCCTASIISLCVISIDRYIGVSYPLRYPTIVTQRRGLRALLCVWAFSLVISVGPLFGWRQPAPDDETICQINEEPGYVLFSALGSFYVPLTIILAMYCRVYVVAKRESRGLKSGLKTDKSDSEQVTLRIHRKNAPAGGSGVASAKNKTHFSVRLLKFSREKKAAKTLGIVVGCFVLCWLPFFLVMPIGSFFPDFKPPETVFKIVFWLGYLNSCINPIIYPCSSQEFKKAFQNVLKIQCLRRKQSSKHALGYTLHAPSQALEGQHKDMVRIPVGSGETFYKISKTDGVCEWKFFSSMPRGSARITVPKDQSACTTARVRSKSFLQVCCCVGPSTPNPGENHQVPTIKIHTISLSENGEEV
# Procedure: α1 -Adrenoceptor Blocking Action
# Male albino rabbits were sacrificed by exsanguination, and the prostate and urethra were isolated. After removal of fat and connective tissues, tranverse smooth muscle strips were prepared from prostate and proximal urethra. Each segmental strip was suspended in an organ bath at 37° C. in a Krebs-Henseleit solution which had been bubbled with 95% O2 and 5% CO2. The isometric contraction under a resting tension of 1 g was recorded with a force-displacement transducer(TB-651T, Nihon Koden) on a recoder(RECTI HORIZ 8K, Nihon Sanei).
# After an equilibration of tissues at least 60 minutes, contractions were elicited by repeated dose of phenylephrine until constant contraction responses were obtained. Subsequently, the dose-response curves were obtained by increasing concentrations of phenylephrine(10^-7 -×10^-4 M). After the resting period for 60 minutes, tissues were incubated with test drugs for 30 minutes and dose-response curves were constructed as described above.
# In all cases, 10^-5 M propranolol(β-adrenoceptor antagonist) was administered 10 minutes before the contraction by phenylephrine.
# The composition of the Krebs-Henseleit solution was as follows(mM): NaCl 118.4, KCl 4.7, MgSO4 1.2, CaCl2 2.5, NaHCO3 25.0, glucose 11.1, KH2 PO4 1.2.
# The potency of each test drug was expressed as the pA2 value(negative logarithm of the antagonist dissociation constant).
# [1] = biological target: Testosterone 5α-reductase; assay: Testosterone 5α-reductase inhibitory action (nuclear fraction of ventral prostate); type: biochemical, rat (male Wistar); settings: rat ventral prostate nuclear fraction; [4-^14 C]-testosterone, NADPH; 60 min at 37° C
# Procedure: Testosterone 5α-Reductase Inhibitory Action
# Male Wistar rats (age: 9-10 weeks old) were anesthetized with ethyl ether and ventral prostates were dissected. The isolated prostates were weighed and homogenized with ultradisperser(Yamato, Japan) and teflon-glass homogenizer in 3 tissue volumes of 50 mM Tris-HCl buffer(pH 7.2) containing 0.25M sucrose and 1 mM dithiothreitol. The homogenates were filtered with gauze and centrifuged at 3,000 rpm for 10 minutes at 4° C. The pellets were resuspended in same buffer as described above and the resultant suspension was used as the nuclear fraction.
# Testosterone 5α-reductase activity was carried out described as follows. The reaction mixture contained […] of nuclear fraction 0.1 ml of 5 mM NADPH, 0.01 ml of test drug dissolved in dimethylsulfoxide and 0.78ml of Tris-HCl buffer(pH 7.0). The reaction was started by addition of 0.01 ml of 150 μM [4-^14 C]-testosterone and incubated for 60 minutes at 37° C. After incubation, reaction was stopped by adding 4 ml of ethyl acetate. 3 ml of ethyl acetate was evaporated under nitrogen to dryness and dissolved in 40 μl of ethyl acetate. 10 μl of ethyl acetate was applied to silica gel thin layer plate(HF254, Merck) and the plate was developed in ethyl acetate and cyclohexane(1:1). The plate was subjected to autoradiography and the radioactivity profiles were determined by scraping the spots of testosterone, dihydrotestosterone and other metabolites and counting in a scintillation counter. Testosterone 5a -reductase activity was calculated for the total radioactivity and radioactivities of dihydrotestosterone and other metabolites. The inhibitory activity of test drug was expressed as IC50 (nM).
# [2] = isolated rabbit prostate strips, phenylephrine contraction, 30 min incubation with drug, 10^-5 M propranolol, pA2 = negative logarithm of antagonist dissociation constant, read-out: Prostate (pA2) (converted)
# [3] = isolated rabbit proximal urethra strips, phenylephrine contraction, 30 min incubation with drug, 10^-5 M propranolol, pA2 = negative logarithm of antagonist dissociation constant, read-out: Urethra (pA2) (converted)
SMILES,IC50 [1] [µM],Kb (α1 -Adrenoceptor),other results
"COc1cc(C(=O)c2cn(CCCC(=O)O)c3ccccc23)ccc1O[C@@H](CCN1CCN(c2ccccc2OC)CC1)c1ccccc1 [Example 35, Potassium S-4-{3-{3-methoxy-4-{1-phenyl-3-[4-(2-methoxyphenyl)piperazin-1-yl]propoxy}benzoyl}indol-1-yl}butanoate]",0.0068,,Kb (α1 -Adrenoceptor; [2]): 0.0275 µM; Kb (α1 -Adrenoceptor; [3]): 0.0646 µM
"CC(C)Oc1ccccc1N1CCN(CCC(Oc2ccc(C(=O)c3cn(CCCC(=O)O)c4ccccc34)cc2)c2ccccc2)CC1 (stereo not drawn) [Example 5, 4-{3-{4-{1-Phenyl-3-[4-(2-isopropoxyphenyl)piperazin-1-yl]propoxy}benzoyl}indol-1-yl}butanoic acid]",,1.1 µM and 0.141 µM,
"COc1cc(C(=O)c2cn(CCCC(=O)O)c3ccccc23)ccc1OC(CCN1CCN(c2ccccc2OC(C)C)CC1)c1ccc(C)cc1 (stereo not drawn) [Example 11, Potassium 4-{3-{3-methoxy-4-{1-(4-methylphenyl)-3-[4-(2-isopropoxyphenyl)piperazin-1-yl]propoxy}benzoyl}indol-1-yl}butanoate]",0.0031,,
"Cc1ccc(C(CCN2CCN(c3ccccc3OC(C)C)CC2)Oc2ccc(C(=O)c3cn(CCCC(=O)O)c4ccccc34)cc2)cc1 (stereo not drawn) [Example 8, Potassium 4-{3-{4-{1-(4-methylphenyl)-3-[4-(2-isopropoxyphenyl)piperazin-1-yl]propoxy}benzoyl}indol-1-yl}butanoate]",0.00026,,
"COc1ccccc1N1CCN(CCC(Oc2ccc(C(=O)c3cn(CCCC(=O)O)c4ccccc34)c(C)c2C)c2ccc(C)cc2)CC1 (stereo not drawn) [Example 22, 4-{3-{2,3-Dimethyl-4-{1-(4-methylphenyl)-3-[4-(2-methoxyphenyl)piperazin-1-yl]propoxy}benzoyl}indol-1-yl}butanoic acid]",0.0037,,
"CCOc1ccccc1N1CCN(CCC(Oc2ccc(C(=O)c3cn(CCCC(=O)O)c4ccccc34)cc2OC)c2ccccc2)CC1 (stereo not drawn) [Example 15, Potassium 4-{3-{3-methoxy-4-{1-phenyl-3-[4-(2-ethoxyphenyl)piperazin-1-yl]propoxy}benzoyl}indol-1-yl}butanoate]",0.0079,0.251 µM and 0.0501 µM,
"COc1ccccc1N1CCN(CCCOc2ccc(C(=O)c3cn(CCCC(=O)O)c4ccccc34)cc2)CC1 [Example 3, Potassium 4-{3-{4-{3-[4-(2-methoxyphenyl)piperazin-1-yl]propoxy}benzoyl}indol-1-yl}butanoate]",,0.115 µM and 0.0759 µM,
"COc1cc(C(=O)c2cn(CCCC(=O)O)c3ccccc23)ccc1OC(CCN1CCN(c2ccccc2OC(C)C)CC1)c1ccccc1 (stereo not drawn) [Example 16, Potassium 4-{3-{3-methoxy-4-{1-phenyl-3-[4-(2-isopropoxyphenyl)piperazin-1-yl]propoxy}benzoyl}indol-1-yl}butanoate]",,0.155 µM and 0.0851 µM,
"COc1ccccc1N1CCN(CCCOc2cc(C(=O)c3cn(CCCC(=O)O)c4ccccc34)ccc2OCc2ccc(C)cc2)CC1 [Example 37, Potassium 4-{3-{4-(4-methylphenylmethoxy)-3-{3-[4-(2-methoxyphenyl)piperazin-1-yl]propoxy}benzoyl}indol-1-yl}butanoate]",0.0035,0.12 µM and 0.0191 µM,
"COc1ccccc1N1CCN(CCC(Oc2cccc(C(=O)c3cn(CCCC(=O)O)c4ccccc34)c2)c2ccc(C)cc2)CC1 (stereo not drawn) [Example 28, Potassium 4-{3-{3-{1-(4-methylphenyl)-3-[4-(2-methoxyphenyl)piperazin-1-yl]propoxy}benzoyl}indol-1-yl}butanoate]",,0.166 µM and 0.102 µM,
"COc1ccccc1N1CCN(CCC(Oc2ccc(C(=O)c3cn(CCCC(=O)O)c4ccccc34)cc2OCc2ccccc2)c2ccc(C)cc2)CC1 (stereo not drawn) [Example 26, 4-{3-{3-Benzyloxy-4-{1-(4-methylphenyl)-3-[4-(2-methoxyphenyl)piperazin-1-yl]propoxy}benzoyl}indol-1-yl}butanoic acid]",0.005,,
"COc1ccccc1N1CCN(CCCOc2cc(C(=O)c3cn(CCCC(=O)O)c4ccccc34)ccc2OCc2ccccc2)CC1 [Example 38, Potassium 4-{3-{4-benzyloxy-3-{3-[4-(2-methoxyphenyl)piperazin-1-yl]propoxy}benzoyl}indol-1-yl}butanoate]",,0.0363 µM and 0.0166 µM,
"CCOc1ccccc1N1CCN(CCCOc2cc(C(=O)c3cn(CCCC(=O)O)c4ccccc34)ccc2OCc2ccc(C)cc2)CC1 [Example 45, Potassium 4-{3-{4-(4-methylphenylmethoxy)-3-{3-[4-(2-ethoxyphenyl)piperazin-1-yl]propoxy}benzoyl}indol-1-yl}butanoate]",0.0015,0.0562 µM and 0.0347 µM,
"COc1ccc(C(CCN2CCN(c3ccccc3OC)CC2)Oc2ccc(C(=O)c3cn(CCCC(=O)O)c4ccccc34)cc2)cc1 (stereo not drawn) [Example 20, Potassium 4-{3-{4-{1-(4-methoxyphenyl)-3-[4-(2-methoxyphenyl)piperazin-1-yl]propoxy}benzoyl}indol-1-yl}butanoate]",,0.692 µM and 0.562 µM,
"COc1cc(C(=O)c2cn(CCCC(=O)O)c3ccccc23)ccc1OC(CCN1CCN(c2ccccc2OC)CC1)c1ccccc1 (stereo not drawn) [Example 14, Potassium 4-{3-{3-methoxy-4-{1-phenyl-3-[4-(2-methoxyphenyl)piperazin-1-yl]propoxy}benzoyl}indol-1-yl}butanoate]",,0.389 µM and 0.0724 µM,
"COc1cc(C(=O)c2cn(CCCC(=O)O)c3ccccc23)ccc1OC(CCN1CCN(c2ccccc2OC)CC1)c1ccc(CC(C)C)cc1 (stereo not drawn) [Example 13, Potassium 4-{3-{3-methoxy-4-{1-(4-isobutylphenyl)-3-[4-(2-methoxyphenyl)piperazin-1-yl]propoxy}benzoyl}indol-1-yl}butanoate]",0.0014,,
"COc1ccccc1N1CCN(CCCOc2cc(C(=O)c3cn(CCCC(=O)O)c4ccccc34)ccc2OCc2ccc(F)cc2)CC1 [Example 42, Potassium 4-{3-{4-(4-fluorophenylmethoxy)-3-{3-[4-(2-methoxyphenyl)piperazin-1-yl]propoxy}benzoyl}indol-1-yl}butanoate]",,0.398 µM and 0.0708 µM,
"COc1ccccc1N1CCN(CCCOc2ccc(C(=O)c3cn(CCCC(=O)O)c4ccccc34)cc2OCc2ccccc2)CC1 [Example 24, 4-{3-{3-Benzyloxy-4-{3-[4-(2-methoxyphenyl)piperazin-1-yl]propoxy}benzoyl}indol-1-yl}butanoic acid]",,0.631 µM and 0.1 µM,
"COc1cc(C(=O)c2cn(CCCC(=O)O)c3ccccc23)ccc1OC(CCN1CCN(c2ccccc2OC)CC1)c1ccc(C)cc1 (stereo not drawn) [Example 1, Potassium 4-{3-{3-methoxy-4-{1-(4-methylphenyl)-3-[4-(2-methoxyphenyl)piperazin-1-yl]propoxy}benzoyl}indol-1-yl} butanoate]",0.0037,,Kb (α1 -Adrenoceptor; [2]): 0.0871 µM; Kb (α1 -Adrenoceptor; [3]): 0.38 µM
"COc1ccccc1N1CCN(CCCCOc2cc(C(=O)c3cn(CCCC(=O)O)c4ccccc34)ccc2OCc2ccc(C)cc2)CC1 [Example 46, Potassium 4-{3-{3-{4-[4-(2-methoxyphenyl)piperazin-1-yl]butoxy}-4-(4-methylphenylmethoxy)benzoyl}indol-1-yl}butanoate]",0.0015,,
